Assay results from patent publication US12239650B2, “Compounds for treating and preventing net associated complications” (The Australian National University, priority 2019, dated 2025).
Read-outs that look alike come from different tables or passages of the source.

Tests used:
[1] = test system: histone-mediated cytotoxicity for HMEC-1; experiment: Histone-mediated cytotoxicity assay (PI/Calcein-AM flow cytometry); format: cell-based
Experimental: Histone-mediated cytotoxicity assays. To determine the cytotoxicity of calf thymus histones (Sigma-Aldrich), various concentrations of histones (100-800 μg ml^−1) were added to suspensions of HMEC-1 or HUVEC (1×10^6 ml^−1) in 96 well plates and incubated for 1 h at 37° C. Cells were then incubated for 5 min at 37° C. with propidium iodide (PI; 2.5 μg ml^−1) (ThermoFisher Scientific), to detect dead cells, and Calcein-AM (0.04 μM) (ThermoFisher Scientific), to detect viable cells, placed on ice and the percentage of dead and viable cells determined by flow cytometry using gating strategies. In inhibition assays, HMEC-1 were incubated with histones (400 μg ml^−1) for 1 h at 37° C. in the presence of different concentrations of compounds (12.5-400 μg ml^−1) prior to the addition of PI and Calcein-AM. HMEC-1 cytotoxicity at each compound concentration was then determined based on the formula:
[formula] and the IC50 value for each polyanion then determined based on the line of best fit (nonlinear regression analysis) using Prism Software (Graphpad Software). In all assays MTS (IC50 30 μg ml^−1) was included as a standard to compensate for experimental variation, with data being adjusted in each assay to MTS having an IC50 of 30 μg ml^−1.

[2] = test system: histone-mediated RBC aggregation; experiment: Histone-mediated erythrocyte aggregation (flow cytometry, scanning EM); format: cell-based, human
Experimental: (§1) Human erythrocytes (RBC) were incubated for 1 h at 37° C. alone (‘Saline’ control) or in the presence of histones (400 μg ml^−1) with or without mCBS (200 μg ml^−1). a, Percentage of RBC aggregation measured by flow cytometry based on forward (FSC) and side (SSC) scatter parameters and an appropriate gating strategy to discriminate aggregated from normal (non-aggregated) RBC. b, Scanning electron micrographs depicting level of RBC aggregation at low and high magnification following the three treatments depicted in (a). c, Concentration dependent inhibition of histone-mediated RBC aggregation by mCBS and MTS, in this case RBC aggregation being calculated by flow cytometry as fold increase in RBC auto-fluorescence relative to RBC in the absence of histones. The fold increase values also provide an estimate of the number of RBC in each aggregate. d, Retention of RBC in an artificial spleen that measures RBC deformability. RBC were incubated with increasing concentrations of histones for 1 h and, at the highest concentration used (400 μg ml^−1), also incubated with either mCBS or MTS (100 and 200 μg ml^−1), prior to passage through the artificial spleen. Data are mean±s.e.m. (n=3 biological replicates). ***P<0.001, ****P<0.0001 (one way ANOVA with Dunnett's multiple comparisons test).
In vitro erythrocyte microscopy, aggregation, fragility and deformability assays. […] J Biol Chem 289, 19531-19537 (2014)). Similarly, erythrocyte fragility induced by histones, in the presence or absence of inhibitors, was quantified using a sheer stress assay that we developed recently (Kordbacheh, F., O'Meara, C. H., Coupland, L. A., Lelliott, P. M. & Parish, C. R. Extracellular histones induce erythrocyte fragility and anemia. Blood 130, 2884-2888 (2017)). Finally, the reduced deformability of erythrocytes in the presence of histones and the effect of inhibitors on this process was assessed by measuring the passage of erythrocytes through an artificial human spleen (Kordbacheh, F., O'Meara, C. H., Coupland, L. A., Lelliott, P. M. & Parish, C. R. Extracellular histones induce erythrocyte fragility and anemia. Blood 130, 2884-2888 (2017); and Deplaine, G. et al. The sensing of poorly deformable red blood cells by the human spleen can be mimicked in vitro. Blood 117, e88-95 (2011)).

[3] = test system: histone-induced erythrocyte rigidity; experiment: Erythrocyte deformability, passage through artificial spleen; format: cell-based, human; conditions: histones 400 μg ml^−1, compounds 100 and 200 μg ml^−1, FIG. 3d
Experimental: as §1, with “RBC were incubated with increasing concentrations of histones for 1 h and, at the highest concentration used (400 μg ml^−1), also incubated with either mCBS or MTS (100 and 200 μg ml^−1), prior to passage through the artificial spleen. Data are mean±s.e.m. (n=3 biological replicates). ***P<0.001, ****P<0.0001 (one way ANOVA with Dunnett's multiple comparisons test).” left out
In vitro erythrocyte microscopy, aggregation, fragility and deformability assays. […] Similarly, erythrocyte fragility induced by histones, in the presence or absence of inhibitors, was quantified using a sheer stress assay that we developed recently (Kordbacheh, F., O'Meara, C. H., Coupland, L. A., Lelliott, P. M. & Parish, C. R. Extracellular histones induce erythrocyte fragility and anemia. Blood 130, 2884-2888 (2017)). […]

[4] = test system: histone-induced platelet aggregation; experiment: Histone-induced aggregation of isolated platelets; format: cell-based, human; conditions: histones 150 μg/mL, isolated platelets, FIG. 4b
Experimental: In vitro platelet aggregation and degranulation assays. For aggregation studies platelets were isolated from human whole blood collected into Na-citrate vacutainers through 2-step centrifugation at room temperature (200×g for 20 min then the platelet-rich plasma 800×g for 15 min), the platelet pellet resuspended in Hank's balanced salt solution containing calcium and magnesium and histones added and incubated in the presence/absence of compounds at the concentrations of each as indicated. Samples were assessed for degree of platelet aggregation after 15 min exposure to histones by flow cytometry using the characteristic log FSC versus log SSC identification of platelets, with increases in the geometric mean of log FSC indicative of platelet aggregation.

[5] = test system: histones; experiment: In-vivo histone toxicity assay; conditions: mice; for Protection from histone-induced liver damage, generalised tissue injury and kidney failure (circulating ALT, LDH, creatinine): compound i.p. 10 min prior to i.v. histones 50 mg kg^−1, blood 4 h post-histones, concentration-dependent
Experimental: In-vivo histone toxicity assays. BALB/c female mice (5-6 weeks of age), that are more prone to histone-induced anemia and easier to inject i.v. at this young age than C57BL/6 mice, were injected i.p. with test compounds at concentrations indicated 10 min prior to i.v. injection of histones (50 mg kg^−1) in phosphate buffered saline. Retro-orbital bleeds were performed with glass Pasteur pipettes 10 min after histone injection and collected blood added to acid citrate dextrose (ACD), the 10 min blood sample being subjected to hematologic analyses for platelet and erythrocyte content using an ADVIA 2120i Hematology Analyzer. Spleens were also harvested at 10 min post-histone injection and splenic hemoglobin content quantified using a hemoglobin assay kit (Sigma-Aldrich). In the case of 4 h blood samples, male C57/BL/6 mice (6-8 weeks of age) were injected with test compounds and histones as above and plasma isolated and stored frozen for subsequent biochemical testing, with markers for liver (alanine aminotransferase, ALT), kidney (creatinine, Crea) and general tissue (lactate dehydrogenase, LDH) damage being determined by the Department of Pathology, The Canberra Hospital.

[6] = Rat ischemia reperfusion tissue (skin) flap model; format: in vivo; conditions: rat skin flap IRI, 50 mg kg^−1 i.p., 72 h, FIG. 7d
From the text: Rat ischemia reperfusion tissue flap model. The procedure employed is largely based on a previously described method (Bone, R. C. et al. Definitions for sepsis and organ failure and guidelines for the use of innovative therapies in sepsis. The ACCP/SCCM Consensus Conference Committee. American College of Chest Physicians/Society of Critical Care Medicine. Chest 101, 1644-1655 (1992)). Briefly, male Wistar rats were anaesthetized, locally depilated and a 3 cm by 6 cm fasciocutaneous flap was excised leaving the vascular pedicle intact. […] The clamp was removed 10 h post-application permitting returned blood flow to the flap. Test compounds (50 mg kg^−1) or saline were administered i.p. 5 min prior to clamp application and 5 min following its removal. The rats were monitored for a total experimental period of 72 h during which rats received additional compound or saline i.p. at 24 and 48 h post-op. The ‘Control No Clamp’ rats had the tissue flap excised and rubber placed underneath prior to re-suturing, however, the vessel was not clamped and they received saline at the same time points as the other rats. At the end of the experimental period the viability of the flaps was determined by the percentage of black necrotic or reddened areas versus pink viable areas. […]

[7] = test system: anti-proliferative effect of histones on HMEC-1; experiment: HMEC-1 proliferation (3H-thymidine) after histone exposure; format: cell-based, human; conditions: compounds 100 μg ml^−1, histones 400 μg ml^−1, FIG. 8b

CO[C@@H]1O[C@H](COS(=O)(=O)O)[C@@H](OS(=O)(=O)O)[C@H](OS(=O)(=O)O)[C@H]1OS(=O)(=O)O [methyl β-glucoside per-O-sulfate]
Inhibition of histone-mediated cytotoxicity for HMEC-1 (endothelial cells) ([1]; compared with heparin, FIG. 2a): little or no inhibitory activity

β-O-methyl cellobioside sulfate [mCBS]
Inhibition of histone-mediated cytotoxicity for HMEC-1 (endothelial cells) ([1]; compared with heparin, FIG. 2a): as effective as heparin
Prevention of histone-mediated RBC aggregation (auto-fluorescence) ([2]; histones 400 μg ml^−1, FIG. 3c): prevented aggregation in a concentration dependent manner
Inhibition of histone-induced erythrocyte aggregation (FSC/SSC) ([2]; histones 400 μg ml^−1, mCBS 200 μg ml^−1, 1 h 37° C., FIG. 3a, confirmed by scanning EM): completely inhibited
Ability of erythrocytes to passage through an artificial spleen [3]: totally restored
Inhibition of histone-induced platelet aggregation [4]: completely inhibited
Histone-induced thrombocytopenia and anaemia ([5]; 100 mg kg^−1 i.p., 10 min post-histones, FIG. 6b): prevented
Relative potency in protecting from histone-induced tissue pathologies ([5]; FIG. 6a): equally active
Protection from histone-induced liver damage, generalised tissue injury and kidney failure (circulating ALT, LDH, creatinine) ([5]; FIG. 6a): protected
Viable area of the skin flap [6]: consistently and significantly increased
Neutralization of anti-proliferative effect of histones on HMEC-1 monolayers [7]: completely neutralized

O=S(=O)(O)OC[C@H]1OC(OS(=O)(=O)O)[C@H](OS(=O)(=O)O)[C@@H](OS(=O)(=O)O)[C@@H]1OS(=O)(=O)O (some centres unmarked) [glucose per-O-sulfate]
Inhibition of histone-mediated cytotoxicity for HMEC-1 (endothelial cells) [1]: little or no inhibitory activity

OC[C@H]1O[C@@H](O[C@H]2[C@H](O)[C@@H](O)[C@H](O)O[C@@H]2CO)[C@H](O)[C@@H](O)[C@@H]1O [CB]
Inhibition of histone-induced platelet aggregation [4]: non-inhibitory
Protection from histone-induced liver damage, generalised tissue injury and kidney failure (circulating ALT, LDH, creatinine) ([5]; FIG. 6a): inactive
